Where two headings read alike, the source gives them in different places.
Key:
Bcl-w = biological target: T1, Bcl-w (Homo sapiens, UniProt Q92843); assay: Competition fluorescence polarization (anisotropy) with fluoresceinated BIM; format: binding
T1 construct: c-myc
T1 sequence (Q92843 1-193): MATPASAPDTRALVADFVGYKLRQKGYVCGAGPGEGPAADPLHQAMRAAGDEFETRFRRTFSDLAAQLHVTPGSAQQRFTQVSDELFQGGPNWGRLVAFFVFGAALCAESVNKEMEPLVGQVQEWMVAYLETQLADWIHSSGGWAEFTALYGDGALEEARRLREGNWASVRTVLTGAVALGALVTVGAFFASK
Procedure: (§1) Plates were mixed at 23°C for 3 hr. Plates were read again at 24 to check equilibration. Experiments were done in at least triplicate.

SF295 cells = format: cell-based; conditions: for peptide concentration leading to cytochrome c release in unprimed cells: SF295, unprimed, iBH3, 25°C, 1 hr; for Bottom (best-fit value) / HillSlope (best-fit value) / Top (best-fit value) / LogEC50 (best-fit value): SF295 cells, iBH3 fit, sigmoidal dose-response (variable slope); for LogEC50 (best-fit value): log of peptide concentration in M
Procedure: To test the possibility that FS1, FS2 or FS3 may directly activate BAK and BAX, we measured cytochrome c release in two ‘unprimed’ cell lines (PC-3 and SF295). Unprimed cells require BAK/BAX activators to release cytochrome c ([Certo et al., 2006]).
Cell line identities were confirmed by STR profiling.
Plates were incubated at 25°C for 1 hr.

[1] = tested on: BCR-ABL-expressing B-lineage acute lymphoblastic leukemia cells dependent on Bcl-xL; assay: BH3 profiling, mitochondrial depolarization (JC-1) in permeabilized cells; format: cell-based; conditions: BH3 profiling fits Bcl-xL, sigmoidal dose-response (variable slope), fit ambiguous
Bfl-1 [2] = assay: Competition fluorescence polarization (anisotropy) with fluoresceinated BIM; format: binding, human; conditions: ratio of Ki values from competition FP
Procedure: as §1

Bfl-1 [3] = biological target: T2, Bfl-1 (Homo sapiens, UniProt Q16548); assay: as above; format: binding; conditions: competition FP source data; for Ki: mean of three replicates
T2 construct: c-myc
T2 sequence (Q16548 1-175): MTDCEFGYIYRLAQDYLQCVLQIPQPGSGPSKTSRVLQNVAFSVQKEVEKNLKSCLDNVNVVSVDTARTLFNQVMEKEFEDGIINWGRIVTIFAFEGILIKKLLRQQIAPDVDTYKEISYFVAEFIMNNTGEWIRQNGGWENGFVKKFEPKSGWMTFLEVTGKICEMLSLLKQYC
Procedure: as §1

[4] = competition FP source data, mean of three replicates, values above 5 μM are reported as > 5 μM in the figures, read-out: mean Ki (M) Bcl-w
[5] = competition FP source data, replicate 1
[6] = competition FP source data, replicate 2
[7] = competition FP source data, replicate 3
[8] = competition FP, 50 nM c-myc-tagged receptor + 25 nM fluoresceinated BIM, Tris pH 7.8, 23°C, 3 hr, mean ± SD of three replicates, read-out: Ki (nM) Bcl-w

Substance | Ki (Bcl-w; [4]) [M] | Ki (M) Bcl-w (Bcl-w; [5]) [M] | Ki (M) Bcl-w (Bcl-w; [6]) [M] | Ki (M) Bcl-w (Bcl-w; [7]) [M] | peptide concentration leading to cytochrome c release in unprimed cells (SF295 cells) [µM] | Bottom (best-fit value) (SF295 cells) | HillSlope (best-fit value) (SF295 cells) | Top (best-fit value) (SF295 cells) | LogEC50 (best-fit value) (SF295 cells) | Bottom (best-fit value) ([1]; constraint Bottom < 5) | Top (best-fit value) ([1]; constraint Top > 78) | HillSlope (best-fit value) [1] | LogEC50 (best-fit value) ([1]; x = Log [Peptide] M) | specificity for Bfl-1 relative to Bcl-xL, Bcl-2, Bcl-w and Mcl-1 (Bfl-1 [2]) | Ki (Bcl-w; [8]) [M] | Ki (Bfl-1 [3]) [nM] | Ki (M) Bfl-1 (Bfl-1 [3]; replicate 1) [M] | Ki (M) Bfl-1 (Bfl-1 [3]; replicate 2) [M] | Ki (M) Bfl-1 (Bfl-1 [3]; replicate 3) [M]
Ac-QWIREIAAGLRRFADILNAQVER-NH2 [FS3] | 7.67e-07 | 7.55e-07 | 8.54e-07 | 6.93e-07 | 30 to 100 | 0.0773 | 2.539 | 1.042 | -4.873 | ~ 5 | 97.17 | ~ 8.841 | ~ -4.964 | – | – | – | – | – | –
Ac-QWVREIAAGLRLAADNVNAQLER-NH2 [FS1] | 7.76e-06 | 5.7e-06 | 7.42e-06 | 1.02e-05 | > 100 | ~ -0.1825 | ~ -14.56 | 0.01448 | ~ -4.046 | – | – | – | – | at least 150 fold | > 5e-06 | 14.9 | 1.51e-08 | 1.72e-08 | 1.22e-08
Ac-QWVREIAAGLRRAADDVNAQVER-NH2 [FS2] | 8.27e-06 | 1.14e-05 | 6.45e-06 | 6.96e-06 | > 100 | – | – | – | – | – | – | – | – | – | > 5e-06 | 21.4 | 2.51e-08 | 2.52e-08 | 1.4e-08

Source: publication PMC5464773 (eLife, 2017)
